The values that follow come from US12599141B2, “Rod-shaped plant viral nanoparticles or virus-like particles for agricultural applications” (priority 2016, dated 2026).

pEC50: −log10 of the molar value. Bounds are passed on as bounds.

For series [1] the following is noted: ref: PubChem CID 11057; cited from earlier work.
In series [2] the test system is C. elegans. The experiment in a line: C. elegans motility assay in liquid culture. It is filed as in vivo, Caenorhabditis elegans. As to the method: OP50-1 E. coli and C. elegans strain N2 were provided by the Caenorhabditis Genetics Center (CGC) from the University of Minnesota, which is funded by NIH office of Research Infrastructure Programs P40 OD010440. Nematodes were cultured using 100 mm×15 mm sterile polystyrene Petri dishes (FB0875712, Fisher). […] Nematodes were then cultured on the OP50-1 E. coli plates at 22° C. […] OP50-1 E. coli pellet stocks were resuspended in S basal and added to the liquid culture to provide a food source to the nematodes.
Bioavailability of CVTMGMV and free CV to C. elegans was investigated in liquid culture (see above). 50 Nematodes were added to each well of a 24-well culture plate to a final volume of 1 mL. […] The percent of affected nematodes (sum of the nematodes on scale (2) and (3)) as a function of time and the effective concentration (EC50) were determined comparing free CV, TMGMV, and CVTMGMV.
Bioavailability of CVTMGMV and free CV in Caenorhabditis elegans (C. elegans) was investigated in liquid culture. C. elegans nematode motility was classified as either (1) totally immobilized, (2) impaired motility, or (3) […] nematodes. To illustrate the data that were collected, a series of snap shots of C. elegans incubated with no treatment, 10 μM of CV, and 10 μM of CVTMGMV were taken every second for 60 s. […] Five nematodes were selected in each treatment regime and pseudocolored to illustrate their motility.
At specific time points, nematodes were observed under a white light microscope, and the percent of affected nematodes (sum of the nematodes on scale (2) and (3)) was quantified as a function of time. The effective concentration (EC50), defined as the concentration of CV at which half of the maximum immobilization of C. elegans was reached, was determined for free CV and CVTMGMV (FIGS. 5D-G).

Series [3] is described as follows: CV release profile from CVTMGMV, dialysis-based assay. It is filed as physicochemical. The settings on record: 10 mM KP buffer.
Method: The release of CV from TMGMV was evaluated using a dialysis-based assay.
Next, we evaluated the release profile of CV from the TMGMV nanocarrier. […] We tested the release profile at room temperature and 4° C. to evaluate two extreme upper soil thermal conditions. Sodium acetate (pH 5.2) and PBS (pH 7.4) buffer solutions were chosen to mimic the acidic and neutral soil environments, respectively. Diffusion of CV from CVTMGMV was also evaluated in KP (pH 7.8) buffer, which was used during loading and storing conditions of the sample. Free CV, in a concentration matched to the concentration and number loaded into TMGMV, was also dialyzed in KP buffer (pH 7.8) at 4° C. as a positive control.
The nature of series [4]: Soil mobility (leaching through 4 cm top soil column). It is filed as physicochemical.
Method: The following soil mobility test was designed to establish the leaching of CVTMGMV and free CV in a soil column. […] One mL aliquots of CVTMGMV or free CV (the concentration was 100 mM normalized to the drug concentration) were applied atop of the soil columns, followed by 50 elution fractions of 300 μL DI water. Each collected elution fraction was centrifuged for 10 min at 12,000 rpm to precipitate remaining soil particles. The supernatant was subsequently analyzed by UV-vis spectroscopy (see above).
A soil mobility test was designed to establish the leaching of CVTMGMV and free CV in soil. Briefly, top soil was packed in a plastic column up to a height of 4 cm and saturated with deionized (DI) water. CVTMGMV or free CV was applied atop the soil columns, followed by DI water. Fractions were collected from the soil column, purified, and analyzed by UV-vis spectroscopy for the presence of TMGMV and CV. The λ260 (RNA) and λ280 (CP) wavelengths were monitored to quantify the amount of TMGMV that leached through the soil.

On to `CN(C)c1ccc(C(=C2C=CC(=[N+](C)C)C=C2)c2ccc(N(C)C)cc2)cc1` [CV, hexamethyl parparosaniline chloride], for which the Koc in series [1] was 6.1×10^5. The “incubation time to maximum efficacy” value in series [2] (1 μM) and in series [2] (10 μM) was 6 h throughout. Besides, the nematodes paralyzed/dead entry in series [2] (1 μM, within the first hour) is recorded as “about 15%”; in series [2] (10 μM, within the first hour) it was “about 30%”; in series [2] (100 μM, within 1 h, 22° C.), “Sixty”. For the same compound, the “motility by time lapse imaging” value in series [2] (10 μM, after 3 h of incubation) is “severe motility impairment”. For the same compound, the Emax at 1 µM in series [2] (Caenorhabditis elegans, 6 h, read-out: maximum efficacy (nematodes affected)) is roughly 25%. In addition, in series [2] (Caenorhabditis elegans, 24 h, read-out: EC50 (concentration of CV at half of maximum immobilization of C. elegans)), the pEC50 is 5.43. The Emax at 10 µM in series [2] (Caenorhabditis elegans, read-out: maximum efficacy (nematodes affected)) is roughly 50%. Moreover, the “effect on nematode motility vs untreated population” value in series [2] (doses lower than 1 μM) is reported as “no significant effect on nematode motility”. For the same compound, in series [3] (pH 7.8, 4° C. (storing conditions)), the “time to 50% of CV released/dialyzed” value is no more than 1.6 h. Besides, the “time to complete release of CV” value in series [3] (pH 7.8, 4° C., dialysis over 72 h) is less than 18 h. Moreover, the “eluted concentration of CV, times lower than CVTMGMV” value in series [4] amounted to 3.6 times.
